These results are taken from patent publication US20250092065A1, “2-(INDAZOL-5-YL)-6-(PIPERIDIN-4-YL)-1,7-NAPHTHYRIDINE DERIVATIVES AND RELATED COMPOUNDS AS MODULATORS FOR SPLICING NUCLEIC ACIDS AND FOR THE TREATMENT OF PROLIFERATIVE DISEASES” (REMIX THERAPEUTICS INC., priority 2022, published 2025).

Common to all, as to format: cell-based, human
One assay deals with MYB mRNA. The experiment in a line: RT-qPCR splicing assay, MYB mRNA canonical (CJ) and alternative (AJ) junction. To be noted: Homo sapiens. The method, boiled down: (§1)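 A673 or K562 cells treated 24 h at 37 °C with 11-point 3-fold dilutions (top final 10 uM, DMSO ≤0.25%). Lysates analysed by one-step RT-qPCR for canonical (CJ) and alternative-exon (AJ) junctions, normalized to GAPDH, GUSB or PPIA. ΔΔCt vs DMSO, RQ = 2^(−ΔΔCt), expressed as percentage response.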
On the technique in general: Real-time PCR tracks product formation cycle by cycle.

The next assay concerns Target C. Description: HiBiT protein abundance assay, Target C (K562 HiBiT knock-in). The note with it: HiBiT knock-in K562 cells, 24 hours, top dose 10 μM. The method, boiled down: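 K562 HiBiT knock-in cells (10000/well) were treated 24 h at 37° C with a 10-point 3-fold dilution series (top 10 μM final, ≤0.25% DMSO). HiBiT luminescence was read after lytic LgBiT detection. Percent response used unmodified K562 and DMSO-treated knock-in controls, and IC50 came from a four-parameter fit at 50% of untreated.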
In general terms: HiBiT is a short tag that completes a luciferase, so light tracks the accessible tagged protein.

The test system of a further assay is SMN2 mRNA. Description: RT-qPCR splicing assay, SMN2 mRNA. The note with it: Homo sapiens, canonical junction qPCR panel, Table 4; read-out: SMN2 IC50 (decrease in CJ mRNA levels). The method, boiled down:
as §1

The mark [1] stands for this setting: RT-qPCR, MYB alternative junction mRNA increase, read-out: MYB AJ (increase in alternative junction mRNA, AC50).
Setting [2] is: RT-qPCR, MYB canonical junction mRNA decrease, read-out: MYB CJ (decrease in canonical junction mRNA, IC50).
The mark [3] stands for this setting: canonical junction qPCR panel, Table 4, read-out: MYB IC50 (decrease in CJ mRNA levels).
Setting [4] is: MYB alternative junction mRNA, RT-qPCR, read-out: MYB AJ (increase in AJ mRNA, AC50).
The mark [5] stands for this setting: MYB canonical junction mRNA, RT-qPCR, read-out: MYB CJ (decrease in CJ mRNA levels, IC50).

Counter-ions that a name gives are not always drawn. Like-named read-outs stand apart in the source and are kept apart here.

A word on the AC50: it is the midpoint of the concentration-response curve, whichever way the signal moves. In general, IC50 refers to the concentration needed to halve the response being measured. For `C[C@H]1CN(c2cc(F)c3nc(-c4cc(F)c5nn(C)cc5c4)ccc3c2)C[C@H](C)N1` (single isomer, unassigned) [Compound 760], the AC50 in the assay on MYB mRNA (setting [1]) was in the range of 0.1 to 1 µM. Also, the values for the IC50 with MYB mRNA (setting [2]), in the assay on MYB mRNA (setting [3]) and in the assay with Target C were below 0.1 µM, below 0.1 µM and 0.1 to 1 µM, respectively.
For `C[C@H]1CN(c2cc(F)c3nc(-c4cc5cn(C)nc5cc4O)ccc3c2)C[C@H](C)N1` (single isomer, unassigned) [Compound 770], the AC50 in the assay with MYB mRNA (setting [1]) was below 0.1 µM. Further, the IC50 with MYB mRNA (setting [2]) was below 0.1 µM; with MYB mRNA (setting [3]) it was below 0.1 µM; in the assay on Target C, 0.1 to 1 µM.
Take `Cc1cn2nc(-c3ccc4cc(N5C[C@H](C)N[C@@H](C)C5)cc(F)c4n3)cc(C)c2n1` (single isomer, unassigned) [Compound 799]: in the assay on MYB mRNA (setting [1]), the AC50 lay in the range of 0.1 to 1 µM. Besides, the IC50 with MYB mRNA (setting [2]) was below 0.1 µM; in the assay with MYB mRNA (setting [3]) it was below 0.1 µM; in the assay on Target C, 0.1 to 1 µM.
For `Cc1c(O)c(-c2ccc3cc(N4C[C@H](C)N[C@@H](C)C4)cc(F)c3n2)cc2cn(C)nc12` (single isomer, unassigned) [Compound 800, 2,2,2-trifluoroacetate], the AC50 in the assay with MYB mRNA (setting [1]) is below 0.1 µM. The IC50 in the assay on MYB mRNA (setting [2]), in the assay on MYB mRNA (setting [3]) and in the assay with Target C was below 0.1 µM each time.
With `Cc1nc(-c2cc3cn(C)nc3cc2O)nc2ccc(N3C[C@H](C)N[C@@H](C)C3)cc12` (single isomer, unassigned) [Compound 806], the AC50 in the assay with MYB mRNA (setting [1]) was in the range of 0.1 to 1 µM. Besides, the IC50 with MYB mRNA (setting [2]) is below 0.1 µM; with MYB mRNA (setting [3]), below 0.1 µM; in the assay with Target C, 1 to 10 µM.
`Cc1nc(-c2cc3cn(C)nc3c(C)c2O)nc2ccc(N3C[C@H](C)N[C@@H](C)C3)cc12` (single isomer, unassigned) [Compound 807]: the AC50 in the assay on MYB mRNA (setting [1]) was below 0.1 µM. The figures for the IC50 in the assay on MYB mRNA (setting [2]), in the assay with MYB mRNA (setting [3]) and in the assay on Target C were below 0.1 µM, below 0.1 µM and above 10 µM, respectively.
On to `Cn1cc2cc(-c3cc4ccc(C5CCNCC5)nc4cn3)c(O)cc2n1` [Compound 104], for which, in the assay on MYB mRNA (setting [4]), the AC50 lay in the range of 1 to 10 µM. Also, the IC50 in the assay with MYB mRNA (setting [5]) was 1 to 10 µM; in the assay with MYB mRNA (setting [3]) it was 1 to 10 µM; in the assay with SMN2 mRNA, 0.1 to 1 µM; in the assay with Target C, 1 to 10 µM.
For the compound `Cn1cc2cc(-c3ccc4nc(N5CC[C@H](NC6CCC6)C5)ccc4n3)c(O)cc2n1` [Compound 156], the AC50 in the assay with MYB mRNA (setting [4]) is below 0.1 µM. For the same compound, the IC50 in the assay on MYB mRNA (setting [5]), with MYB mRNA (setting [3]), with SMN2 mRNA and in the assay with Target C was below 0.1 µM throughout.
Regarding `CC(C)N[C@H]1CCN(c2ccc3nc(-c4cc5cn(C)nc5cc4O)ccc3n2)C1` [Compound 171], the AC50 in the assay on MYB mRNA (setting [4]) was below 0.1 µM. In addition, the IC50 with MYB mRNA (setting [5]), in the assay with MYB mRNA (setting [3]), with SMN2 mRNA and with Target C was below 0.1 µM throughout.
As for `Cc1cn2nc(-c3ccc4nc(N5CCC(NC(C)(C)C)C5)ccc4n3)cc(C)c2n1` (stereo not drawn) [Compound 186], the AC50 in the assay with MYB mRNA (setting [4]) was below 0.1 µM. In addition, the 50% inhibitory concentration (IC50) in the assay with MYB mRNA (setting [5]) is 0.1 to 1 µM; with MYB mRNA (setting [3]) it was 0.1 to 1 µM; in the assay with SMN2 mRNA it was below 0.1 µM; with Target C it was below 0.1 µM.
Take `Cn1cc2cc(-c3ccc4nc(N5CC[C@H](NCC6CC6)C5)ccc4n3)c(O)cc2n1` [Compound 194]: the AC50 in the assay on MYB mRNA (setting [4]) was below 0.1 µM. Further, the concentration for half-maximal inhibition (IC50) in the assay with MYB mRNA (setting [5]), in the assay on MYB mRNA (setting [3]), in the assay with SMN2 mRNA and in the assay on Target C was below 0.1 µM each time.
In the case of `CN(C)C1CCN(c2ccc3nc(-c4cc5cn(C)nc5c(F)c4O)ncc3c2)CC1` [Compound 757, 5-{6-[4-(dimethylamino)piperidin-1-yl]quinazolin-2-yl}-7-fluoro-2-methylindazol-6-ol], the AC50 in the assay with MYB mRNA (setting [1]) lay in the range of 0.1 to 1 µM. Moreover, the IC50 in the assay with MYB mRNA (setting [2]) is below 0.1 µM; in the assay on MYB mRNA (setting [3]) it was below 0.1 µM; in the assay with SMN2 mRNA, below 0.1 µM; in the assay with Target C it was 1 to 10 µM.
For the compound `C[C@@H]1CN(c2cc(F)c3nc(-c4cc(F)c5nn(C)cc5c4)ccc3c2)C[C@H](C)N1` [Compound 758, 6-[(3R,5S)-3,5-dimethylpiperazin-1-yl]-8-fluoro-2-(7-fluoro-2-methylindazol-5-yl)quinoline], the AC50 in the assay on MYB mRNA (setting [1]) lay within 0.1 to 1 µM. The IC50 was 0.1 to 1 µM with MYB mRNA (setting [2]), 0.1 to 1 µM in the assay on MYB mRNA (setting [3]), below 0.1 µM in the assay on SMN2 mRNA and 0.1 to 1 µM in the assay with Target C.
In the case of `C[C@@H]1CN(c2cc(F)c3nc(-c4cc5cn(C)nc5c(F)c4O)ccc3c2)C[C@H](C)N1` [Compound 763, 5-{6-[(3R,5S)-3,5-dimethylpiperazin-1-yl]-8-fluoroquinolin-2-yl}-7-fluoro-2-methylindazol-6-ol hydrochloride], the AC50 with MYB mRNA (setting [1]) is below 0.1 µM. For the same compound, the IC50 in the assay with MYB mRNA (setting [2]), in the assay with MYB mRNA (setting [3]), in the assay with SMN2 mRNA and in the assay on Target C was below 0.1 µM throughout.
With `C[C@@H]1CN(c2cc(F)c3nc(-c4cc5cn(C)nc5cc4O)ccc3c2)C[C@H](C)N1` [Compound 768, 5-{6-[(3R,5S)-3,5-dimethylpiperazin-1-yl]-8-fluoroquinolin-2-yl}-2-methylindazol-6-ol hydrochloride], in the assay on MYB mRNA (setting [1]), the AC50 fell in the range of 0.1 to 1 µM. Moreover, the IC50 in the assay on MYB mRNA (setting [2]) is 0.1 to 1 µM; in the assay with MYB mRNA (setting [3]), 0.1 to 1 µM; in the assay on SMN2 mRNA, below 0.1 µM; in the assay with Target C, 1 to 10 µM.
As for `Cc1cn2cc(-c3ncc4cc(N5C[C@@H](C)N[C@@H](C)C5)ccc4n3)cc(F)c2n1` [Compound 773, 6-[(3R,5S)-3,5-dimethylpiperazin-1-yl]-2-{8-fluoro-2-methylimidazo[1,2-a]pyridin-6-yl}quinazoline], the AC50 in the assay on MYB mRNA (setting [1]) was below 0.1 µM. Moreover, the IC50 was below 0.1 µM in the assay on MYB mRNA (setting [2]), below 0.1 µM with MYB mRNA (setting [3]), below 0.1 µM with SMN2 mRNA and 0.1 to 1 µM with Target C.
For the compound `Cc1cn2cc(-c3nc(C(=O)NC4CCC4)c4cc(N5C[C@@H](C)N[C@@H](C)C5)ccc4n3)cc(F)c2n1` [Compound 779, N-cyclobutyl-6-[(3R,5S)-3,5-dimethylpiperazin-1-yl]-2-{8-fluoro-2-methylimidazo[1,2-a]pyridin-6-yl}quinazoline-4-carboxamide], the AC50 in the assay on MYB mRNA (setting [1]) was below 0.1 µM. Moreover, the IC50 in the assay with MYB mRNA (setting [2]) was below 0.1 µM; in the assay on MYB mRNA (setting [3]), below 0.1 µM; with SMN2 mRNA it was below 0.1 µM; in the assay on Target C, 0.1 to 1 µM.
For `Cc1c(O)c(-c2nc(C(N)=O)c3cc(N4C[C@H](C)N[C@@H](C)C4)ccc3n2)cc2cn(C)nc12` [Compound 796], the AC50 with MYB mRNA (setting [1]) is below 0.1 µM. For the same compound, the IC50 in the assay on MYB mRNA (setting [2]) was below 0.1 µM; with MYB mRNA (setting [3]) it was below 0.1 µM; in the assay on Target C, 0.1 to 1 µM.
For `C[C@H]1CN(c2ccc3nc(-c4cc5cn(C)nc5cc4O)nc(C(N)=O)c3c2)C[C@H](C)N1` [Compound 797], the AC50 in the assay with MYB mRNA (setting [1]) was below 0.1 µM. Moreover, the IC50 with MYB mRNA (setting [2]) was below 0.1 µM; in the assay on MYB mRNA (setting [3]), below 0.1 µM; with Target C, 1 to 10 µM.
Turning to `Cc1cn2cc(-c3ncc4cc(N5C[C@H](C)N[C@@H](C)C5)ccc4n3)cc(F)c2n1` [Compound 803, 6-[(3S,5S)-3,5-dimethylpiperazin-1-yl]-2-{8-fluoro-2-methylimidazo[1,2-a]pyridin-6-yl}quinazoline], the AC50 in the assay on MYB mRNA (setting [1]) is below 0.1 µM. Further, the IC50 in the assay with MYB mRNA (setting [2]) was below 0.1 µM; in the assay on MYB mRNA (setting [3]), below 0.1 µM; in the assay with SMN2 mRNA, below 0.1 µM; with Target C it was 0.1 to 1 µM.
As to `Cc1c(O)c(-c2ccc3cc(N4CCNC5(CC5)C4)cc(F)c3n2)cc2cn(C)nc12` [Compound 805, 5-(6-{4,7-diazaspiro[2.5]octan-7-yl}-8-fluoroquinolin-2-yl)-2,7-dimethylindazol-6-ol], the AC50 in the assay with MYB mRNA (setting [1]) was below 0.1 µM. For the same compound, the IC50 in the assay on MYB mRNA (setting [2]) was below 0.1 µM; in the assay with MYB mRNA (setting [3]), below 0.1 µM; with Target C, 0.1 to 1 µM.
